# Data published in PMC8371461 (Frontiers in Pharmacology, 2021).
# Tests used:
# [1] = biological target: T1, ACVR2A (Homo sapiens, UniProt P27037); assay: kinome scan; assay type: binding; conditions: 10 µM
# T1 construct: purchased DiscoverX (KINOMEscan)
# [2] = biological target: T2, BLK (Homo sapiens, UniProt P51451); assay: kinome scan; assay type: binding; conditions: 10 µM
# T2 construct: purchased DiscoverX (KINOMEscan)
# [3] = biological target: T3, CAMK1G (Homo sapiens, UniProt Q96NX5); assay: kinome scan; assay type: binding; conditions: 10 µM
# T3 construct: purchased DiscoverX (KINOMEscan)
# [4] = biological target: T4, CAMK2A (Homo sapiens, UniProt Q9UQM7); assay: kinome scan; assay type: binding; conditions: 10 µM
# T4 construct: purchased DiscoverX (KINOMEscan)
# [5] = biological target: T5, CDK5 (Homo sapiens, UniProt Q00535); assay: kinome scan; assay type: binding; conditions: 10 µM
# T5 construct: purchased DiscoverX (KINOMEscan)
# [6] = biological target: T6, CDK8 (Homo sapiens, UniProt P49336); assay: kinome scan; assay type: binding; conditions: 10 µM
# T6 construct: purchased DiscoverX (KINOMEscan)
# [7] = biological target: T7, CHEK2 (Homo sapiens, UniProt O96017); assay: kinome scan; assay type: binding; conditions: 10 µM
# T7 construct: purchased DiscoverX (KINOMEscan)
# [8] = biological target: T8, CSNK1A1L (Homo sapiens, UniProt Q8N752); assay: kinome scan; assay type: binding; conditions: 10 µM
# T8 construct: purchased DiscoverX (KINOMEscan)
# T8 sequence (Q8N752 whole entry): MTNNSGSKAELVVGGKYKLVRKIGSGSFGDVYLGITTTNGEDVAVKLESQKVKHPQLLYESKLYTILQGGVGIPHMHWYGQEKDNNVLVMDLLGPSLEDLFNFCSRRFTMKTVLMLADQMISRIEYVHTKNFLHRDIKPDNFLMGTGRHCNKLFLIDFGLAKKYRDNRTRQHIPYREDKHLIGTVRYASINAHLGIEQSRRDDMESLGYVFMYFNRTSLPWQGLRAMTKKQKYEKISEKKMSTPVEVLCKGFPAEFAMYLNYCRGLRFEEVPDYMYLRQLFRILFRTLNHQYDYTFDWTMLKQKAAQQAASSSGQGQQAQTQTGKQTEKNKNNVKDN
# [9] = biological target: T9, DDR2 (Homo sapiens, UniProt Q16832); assay: kinome scan; assay type: binding; conditions: 10 µM
# T9 construct: purchased DiscoverX (KINOMEscan)
# [10] = biological target: T10, EGFR(G719S) (Homo sapiens, UniProt P00533, G719S); assay: kinome scan; assay type: binding; conditions: 10 µM
# T10 construct: purchased DiscoverX (KINOMEscan)
# [11] = biological target: T11, EPHA3 (Homo sapiens, UniProt P29320); assay: kinome scan; assay type: binding; conditions: 10 µM
# T11 construct: purchased DiscoverX (KINOMEscan)
# T11 sequence (P29320 21-983): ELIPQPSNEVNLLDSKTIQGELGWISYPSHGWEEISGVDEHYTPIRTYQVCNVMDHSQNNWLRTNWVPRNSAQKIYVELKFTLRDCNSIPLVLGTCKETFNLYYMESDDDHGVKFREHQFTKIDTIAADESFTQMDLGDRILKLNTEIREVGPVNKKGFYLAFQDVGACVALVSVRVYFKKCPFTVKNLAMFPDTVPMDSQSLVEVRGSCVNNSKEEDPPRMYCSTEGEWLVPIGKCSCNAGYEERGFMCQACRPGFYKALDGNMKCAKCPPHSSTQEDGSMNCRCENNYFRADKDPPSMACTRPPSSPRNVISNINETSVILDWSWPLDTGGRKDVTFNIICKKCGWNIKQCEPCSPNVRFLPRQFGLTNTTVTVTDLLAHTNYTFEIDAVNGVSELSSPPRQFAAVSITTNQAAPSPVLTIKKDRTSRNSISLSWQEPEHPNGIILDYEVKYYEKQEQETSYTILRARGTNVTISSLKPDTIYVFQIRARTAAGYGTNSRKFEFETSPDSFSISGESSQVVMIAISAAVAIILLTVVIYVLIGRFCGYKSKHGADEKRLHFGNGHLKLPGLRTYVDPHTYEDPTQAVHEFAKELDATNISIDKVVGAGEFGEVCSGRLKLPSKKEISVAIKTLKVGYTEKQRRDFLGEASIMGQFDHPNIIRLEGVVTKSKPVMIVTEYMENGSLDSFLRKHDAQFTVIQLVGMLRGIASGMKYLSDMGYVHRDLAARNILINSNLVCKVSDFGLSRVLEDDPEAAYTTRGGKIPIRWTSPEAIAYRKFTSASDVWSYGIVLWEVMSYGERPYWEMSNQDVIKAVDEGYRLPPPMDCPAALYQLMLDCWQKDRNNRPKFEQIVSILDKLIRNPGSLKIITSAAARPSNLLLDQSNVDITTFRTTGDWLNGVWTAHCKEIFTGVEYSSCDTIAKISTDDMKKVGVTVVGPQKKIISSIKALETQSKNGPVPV
# [12] = biological target: T12, FLT3(D835Y) (Homo sapiens, UniProt P36888, D835Y); assay: kinome scan; assay type: binding; conditions: 10 µM
# T12 construct: purchased DiscoverX (KINOMEscan)
# [13] = biological target: T13, JAK1(JH1domain-catalytic) (Homo sapiens, UniProt P23458); assay: kinome scan; assay type: binding; conditions: 10 µM
# T13 construct: JAK1(JH1domain-catalytic); purchased DiscoverX (KINOMEscan)
# [14] = biological target: T14, JAK1(JH2domain-pseudokinase) (Homo sapiens, UniProt P23458); assay: kinome scan; assay type: binding; conditions: 10 µM
# T14 construct: JAK1(JH2domain-pseudokinase); purchased DiscoverX (KINOMEscan)
# [15] = biological target: T15, JNK3 (Homo sapiens, UniProt P53779); assay: kinome scan; assay type: binding; conditions: 10 µM
# T15 construct: purchased DiscoverX (KINOMEscan)
# [16] = biological target: T16, LCK (Homo sapiens, UniProt P06239); assay: kinome scan; assay type: binding; conditions: 10 µM
# T16 construct: purchased DiscoverX (KINOMEscan)
# [17] = biological target: T17, MAP4K3 (Homo sapiens, UniProt Q8IVH8); assay: kinome scan; assay type: binding; conditions: 10 µM
# T17 construct: purchased DiscoverX (KINOMEscan)
# T17 sequence (Q8IVH8 whole entry): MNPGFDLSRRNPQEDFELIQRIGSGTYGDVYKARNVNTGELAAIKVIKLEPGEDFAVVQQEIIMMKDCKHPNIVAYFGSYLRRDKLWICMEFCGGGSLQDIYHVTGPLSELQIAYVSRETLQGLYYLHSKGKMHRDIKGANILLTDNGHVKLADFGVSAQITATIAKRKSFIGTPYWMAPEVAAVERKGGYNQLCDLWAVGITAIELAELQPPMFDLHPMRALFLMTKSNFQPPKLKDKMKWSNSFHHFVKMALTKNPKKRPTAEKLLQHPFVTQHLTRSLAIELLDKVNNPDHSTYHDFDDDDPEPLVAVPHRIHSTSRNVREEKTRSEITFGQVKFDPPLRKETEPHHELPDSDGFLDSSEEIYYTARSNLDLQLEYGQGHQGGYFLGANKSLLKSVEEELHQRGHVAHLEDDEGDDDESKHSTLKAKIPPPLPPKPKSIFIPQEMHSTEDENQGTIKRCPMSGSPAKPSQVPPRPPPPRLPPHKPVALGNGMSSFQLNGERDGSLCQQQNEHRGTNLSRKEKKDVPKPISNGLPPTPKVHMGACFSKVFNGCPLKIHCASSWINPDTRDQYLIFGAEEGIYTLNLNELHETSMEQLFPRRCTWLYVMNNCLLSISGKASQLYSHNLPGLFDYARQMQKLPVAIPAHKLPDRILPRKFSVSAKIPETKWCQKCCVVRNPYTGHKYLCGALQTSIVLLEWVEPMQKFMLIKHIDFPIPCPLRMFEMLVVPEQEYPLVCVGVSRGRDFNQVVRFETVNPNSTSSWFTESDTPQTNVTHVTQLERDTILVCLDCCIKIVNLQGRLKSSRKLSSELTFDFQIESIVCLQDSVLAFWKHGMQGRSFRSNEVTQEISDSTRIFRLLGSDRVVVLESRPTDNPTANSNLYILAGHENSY
# [18] = biological target: T18, MAST1 (Homo sapiens, UniProt Q9Y2H9); assay: kinome scan; assay type: binding; conditions: 10 µM
# T18 construct: purchased DiscoverX (KINOMEscan)
# [19] = biological target: T19, MEK4 (Homo sapiens, UniProt P45985); assay: kinome scan; assay type: binding; conditions: 10 µM
# T19 construct: purchased DiscoverX (KINOMEscan)
# [20] = biological target: T20, MINK (Homo sapiens, UniProt Q8N4C8); assay: kinome scan; assay type: binding; conditions: 10 µM
# T20 construct: purchased DiscoverX (KINOMEscan)
# [21] = biological target: T21, MKK7 (Homo sapiens, UniProt O14733); assay: kinome scan; assay type: binding; conditions: 10 µM
# T21 construct: purchased DiscoverX (KINOMEscan)
# [22] = biological target: T22, MST1 (Homo sapiens, UniProt Q13043); assay: kinome scan; assay type: binding; conditions: 10 µM
# T22 construct: purchased DiscoverX (KINOMEscan)
# T22 sequence (Q13043 whole entry): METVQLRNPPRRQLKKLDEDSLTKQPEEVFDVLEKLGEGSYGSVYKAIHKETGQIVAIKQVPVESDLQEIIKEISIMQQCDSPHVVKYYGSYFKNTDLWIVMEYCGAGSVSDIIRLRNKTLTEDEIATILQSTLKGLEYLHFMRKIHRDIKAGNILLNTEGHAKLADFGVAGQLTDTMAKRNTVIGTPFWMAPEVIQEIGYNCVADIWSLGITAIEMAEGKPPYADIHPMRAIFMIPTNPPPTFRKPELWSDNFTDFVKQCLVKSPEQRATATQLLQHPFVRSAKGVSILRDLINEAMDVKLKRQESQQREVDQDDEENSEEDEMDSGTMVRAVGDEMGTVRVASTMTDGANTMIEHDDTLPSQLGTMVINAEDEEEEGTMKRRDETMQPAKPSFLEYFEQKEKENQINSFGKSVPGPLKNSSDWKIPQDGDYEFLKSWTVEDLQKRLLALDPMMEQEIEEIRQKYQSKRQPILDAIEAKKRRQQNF
# [23] = biological target: T23, PAK1 (Homo sapiens, UniProt Q13153); assay: kinome scan; assay type: binding; conditions: 10 µM
# T23 construct: purchased DiscoverX (KINOMEscan)
# [24] = biological target: T24, PAK7 (Homo sapiens, UniProt Q9P286); assay: kinome scan; assay type: binding; conditions: 10 µM
# T24 construct: purchased DiscoverX (KINOMEscan)
# [25] = biological target: T25, PIK3CA(C420R) (Homo sapiens, UniProt P42336, C420R); assay: kinome scan; assay type: binding; conditions: 10 µM
# T25 construct: purchased DiscoverX (KINOMEscan)
# [26] = biological target: T26, PIP5K2B (Homo sapiens, UniProt P78356); assay: kinome scan; assay type: binding; conditions: 10 µM
# T26 construct: purchased DiscoverX (KINOMEscan)
# T26 sequence (P78356 whole entry): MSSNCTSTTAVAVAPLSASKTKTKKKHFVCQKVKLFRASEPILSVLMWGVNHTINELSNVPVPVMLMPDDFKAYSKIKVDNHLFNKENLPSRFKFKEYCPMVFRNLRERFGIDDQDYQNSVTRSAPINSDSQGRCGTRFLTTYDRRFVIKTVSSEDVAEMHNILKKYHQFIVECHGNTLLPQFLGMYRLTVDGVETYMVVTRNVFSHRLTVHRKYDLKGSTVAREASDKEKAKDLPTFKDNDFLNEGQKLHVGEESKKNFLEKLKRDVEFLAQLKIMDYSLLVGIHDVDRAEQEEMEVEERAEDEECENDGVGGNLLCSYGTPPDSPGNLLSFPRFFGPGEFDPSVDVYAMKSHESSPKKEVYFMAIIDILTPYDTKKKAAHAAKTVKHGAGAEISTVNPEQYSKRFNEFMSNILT
# [27] = biological target: T27, PRKCE (Homo sapiens, UniProt Q02156); assay: kinome scan; assay type: binding; conditions: 10 µM
# T27 construct: purchased DiscoverX (KINOMEscan)
# [28] = biological target: T28, PRKCH (Homo sapiens, UniProt P24723); assay: kinome scan; assay type: binding; conditions: 10 µM
# T28 construct: purchased DiscoverX (KINOMEscan)
# [29] = biological target: T29, RPS6KA4(Kin.Dom.2-C-terminal) (Homo sapiens, UniProt O75676); assay: kinome scan; assay type: binding; conditions: 10 µM
# T29 construct: RPS6KA4(Kin.Dom.2-C-terminal); purchased DiscoverX (KINOMEscan)
# [30] = biological target: T30, RPS6KA5(Kin.Dom.2-C-terminal) (Homo sapiens, UniProt O75582); assay: kinome scan; assay type: binding; conditions: 10 µM
# T30 construct: RPS6KA5(Kin.Dom.2-C-terminal); purchased DiscoverX (KINOMEscan)
# T30 sequence (O75582 426-687 limits assumed): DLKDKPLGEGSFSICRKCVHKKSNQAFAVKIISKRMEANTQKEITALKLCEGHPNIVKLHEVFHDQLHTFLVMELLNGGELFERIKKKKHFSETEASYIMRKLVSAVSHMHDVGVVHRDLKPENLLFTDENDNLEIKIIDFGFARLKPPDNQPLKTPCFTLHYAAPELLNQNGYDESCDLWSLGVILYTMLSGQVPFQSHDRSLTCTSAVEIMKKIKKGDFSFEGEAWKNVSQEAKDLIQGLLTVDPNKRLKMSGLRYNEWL
# [31] = biological target: T31, RSK1(Kin.Dom.2-C-terminal) (Homo sapiens, UniProt Q15418); assay: kinome scan; assay type: binding; conditions: 10 µM
# T31 construct: RSK1(Kin.Dom.2-C-terminal); purchased DiscoverX (KINOMEscan)
# [32] = biological target: T32, TAK1 (Homo sapiens, UniProt O43318); assay: kinome scan; assay type: binding; conditions: 10 µM
# T32 construct: purchased DiscoverX (KINOMEscan)
# T32 sequence (O43318 whole entry): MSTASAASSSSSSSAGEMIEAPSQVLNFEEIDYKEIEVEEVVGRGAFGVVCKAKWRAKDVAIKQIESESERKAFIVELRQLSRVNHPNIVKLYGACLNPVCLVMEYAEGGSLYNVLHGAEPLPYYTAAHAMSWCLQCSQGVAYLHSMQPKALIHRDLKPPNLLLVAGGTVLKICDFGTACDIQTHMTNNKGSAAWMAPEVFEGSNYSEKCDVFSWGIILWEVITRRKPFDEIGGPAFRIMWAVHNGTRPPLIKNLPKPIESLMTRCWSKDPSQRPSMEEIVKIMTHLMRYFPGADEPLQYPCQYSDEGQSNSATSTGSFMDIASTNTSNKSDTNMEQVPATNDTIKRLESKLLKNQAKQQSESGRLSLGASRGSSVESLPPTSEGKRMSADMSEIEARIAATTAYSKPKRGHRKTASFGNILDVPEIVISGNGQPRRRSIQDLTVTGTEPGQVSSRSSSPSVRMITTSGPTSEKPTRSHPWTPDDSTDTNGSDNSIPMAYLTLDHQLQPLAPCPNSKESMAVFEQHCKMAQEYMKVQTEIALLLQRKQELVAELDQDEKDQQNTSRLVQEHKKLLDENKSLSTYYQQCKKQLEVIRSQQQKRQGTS
# [33] = biological target: T33, TAOK1 (Homo sapiens, UniProt Q7L7X3); assay: kinome scan; assay type: binding; conditions: 10 µM
# T33 construct: purchased DiscoverX (KINOMEscan)
# T33 sequence (Q7L7X3 whole entry): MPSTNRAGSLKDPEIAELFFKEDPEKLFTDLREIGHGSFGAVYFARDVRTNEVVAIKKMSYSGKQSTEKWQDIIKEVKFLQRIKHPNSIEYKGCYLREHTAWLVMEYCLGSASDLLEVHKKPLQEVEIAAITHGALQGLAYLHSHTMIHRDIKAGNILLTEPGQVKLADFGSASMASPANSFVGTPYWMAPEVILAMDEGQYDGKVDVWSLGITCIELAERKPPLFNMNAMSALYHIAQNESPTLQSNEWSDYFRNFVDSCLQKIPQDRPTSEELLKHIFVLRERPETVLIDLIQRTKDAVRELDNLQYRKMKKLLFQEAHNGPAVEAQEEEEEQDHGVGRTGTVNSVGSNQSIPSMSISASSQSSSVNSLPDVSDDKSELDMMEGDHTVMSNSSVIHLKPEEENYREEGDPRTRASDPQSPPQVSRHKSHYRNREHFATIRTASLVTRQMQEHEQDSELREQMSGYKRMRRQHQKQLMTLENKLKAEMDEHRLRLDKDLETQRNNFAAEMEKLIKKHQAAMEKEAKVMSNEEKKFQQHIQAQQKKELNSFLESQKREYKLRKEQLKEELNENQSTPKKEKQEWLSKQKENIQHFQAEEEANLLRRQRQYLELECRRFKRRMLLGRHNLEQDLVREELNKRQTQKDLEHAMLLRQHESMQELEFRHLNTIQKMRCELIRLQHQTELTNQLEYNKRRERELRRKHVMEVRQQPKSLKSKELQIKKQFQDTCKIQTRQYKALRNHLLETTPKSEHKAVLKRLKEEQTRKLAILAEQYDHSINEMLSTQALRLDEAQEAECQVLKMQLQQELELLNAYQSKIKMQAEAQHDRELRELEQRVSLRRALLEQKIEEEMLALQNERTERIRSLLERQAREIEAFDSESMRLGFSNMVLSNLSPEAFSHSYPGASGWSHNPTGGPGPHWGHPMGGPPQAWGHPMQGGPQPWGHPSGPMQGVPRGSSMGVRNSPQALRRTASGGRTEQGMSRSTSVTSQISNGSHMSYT
# [34] = biological target: T34, TBK1 (Homo sapiens, UniProt Q9UHD2); assay: kinome scan; assay type: binding; conditions: 10 µM
# T34 construct: purchased DiscoverX (KINOMEscan)
# [35] = biological target: T35, TIE1 (Homo sapiens, UniProt P35590); assay: kinome scan; assay type: binding; conditions: 10 µM
# T35 construct: purchased DiscoverX (KINOMEscan)
# [36] = biological target: T36, ULK2 (Homo sapiens, UniProt Q8IYT8); assay: kinome scan; assay type: binding; conditions: 10 µM
# T36 construct: purchased DiscoverX (KINOMEscan)
# [37] = biological target: T37, ULK3 (Homo sapiens, UniProt Q6PHR2); assay: kinome scan; assay type: binding; conditions: 10 µM
# T37 construct: purchased DiscoverX (KINOMEscan)
# [38] = biological target: T38, VEGFR2 (Homo sapiens, UniProt P35968); assay: kinome scan; assay type: binding; conditions: 10 µM
# T38 construct: purchased DiscoverX (KINOMEscan)
# [39] = biological target: T39, YANK2 (Homo sapiens, UniProt Q9NY57); assay: kinome scan; assay type: binding; conditions: 10 µM
# T39 construct: purchased DiscoverX (KINOMEscan)
# [40] = test system: CGR8EF1αS,RLuc-Tα1,FLuc cells; assay: neural differentiation, Dual Luciferase Reporter Assay (FLuc/RLuc); assay type: cell-based, mouse; conditions: 72 h, normalized to DMSO
# Protocol: The CGR8 mouse PSC were cultured as described ([Suter et al., 2009]). For neural induction, CGR8 cells were plated in 96-well plates at a density of 10,000 cells/cm^2 on gelatine-coated cell culture plates, in differentiation medium [BHK-21 medium supplemented with 20% foetal calf serum (Thermofisher), L-glutamine 2 mM (Thermofisher), non-essential amino acids (1X, Thermofisher), sodium pyruvate 1 mM (Thermofisher), penicillin/streptomycin 50 U/ml (Thermofisher)]. CGR8EF1αS,RLuc-Tα1,FLuc cells were described in ([Suter et al., 2009]) and were cultured as described above. Luminescence assays were directly performed in 96-well plates with the Dual Luciferase Reporter Assay System (Promega) according to the manufacturer’s instructions. Luminescence was measured with the SpectraMax L Microplate luminometer (Molecular Devices). Cell viability in the wells was measured by the addition of propidium iodide 1 µg/ml in 100 µL of PBS and fluorescence was assessed in each well using a FluoStar Optima reader (Pharmaceutical Technology Group at the University of Geneva).
# The CGR8 PSC line was stably transduced with a dual promoter/reporter gene construct containing a ubiquitous promoter (EF1αS) controlling the expression of Renilla Luciferase (RLuc) and also an early neural-specific promoter (Tα1), controlling the expression of Firefly Luciferase (FLuc). […]
smiles,measurement,setting,value
"Nc1ccc(N=Nc2ccccc2)c(N)n1 [phenazopyridine, 2,6-diamino-3-(phenylazo)pyridine]",kinase inhibition,[1],94
same,remaining binding (% of control),[2],100
same,kinase inhibition,[3],88
same,kinase inhibition,[4],97
same,kinase inhibition,[5],90
same,kinase inhibition,[6],86
same,kinase inhibition,[7],99
same,kinase inhibition,[8],100
same,kinase inhibition,[9],100
same,kinase inhibition,[10],92
same,kinase inhibition,[11],81
same,percent of control (remaining binding),[12],42
same,kinase inhibition,[13],97
same,kinase inhibition,[14],32
same,kinase inhibition,[15],91
same,kinase inhibition,[16],96
same,kinase inhibition,[17],74
same,kinase inhibition,[18],85
same,kinase inhibition,[19],48
same,kinase inhibition,[20],90
same,kinase inhibition,[21],100
same,kinase inhibition,[22],88
same,kinase inhibition,[23],100
same,kinase inhibition,[24],100
same,kinase inhibition,[25],100
same,kinase inhibition,[26],97
same,kinase inhibition,[27],100
same,kinase inhibition,[28],78
same,kinase inhibition,[29],90
same,kinase inhibition,[30],100
same,kinase inhibition,[31],86
same,kinase inhibition,[32],80
same,kinase inhibition,[33],93
same,kinase inhibition,[34],100
same,kinase inhibition,[35],91
same,kinase inhibition,[36],96
same,kinase inhibition,[37],100
same,kinase inhibition,[38],97
same,kinase inhibition,[39],90
same,concentration at which an increase of the FLuc signal was observed,[40],1 µM
same,concentration of maximal FLuc signal,[40],10 µM
